Measurements from ChEMBL document CHEMBL2016493, “Design, synthesis, synergistic antimicrobial activity and cytotoxicity of 4-aryl substituted 3,4-dihydropyrimidinones of curcumin” (Bioorg Med Chem Lett, 2012).
The source made the active and inactive calls. No cut-off for these calls is given here.

Columns and labels:
[1] = test system: Burkholderia pseudomallei; assay: Antibacterial activity against Burkholderia pseudomallei NTCC 10274 at 20 uM/ml after 24 hrs by kirby-bauer method; assay type: functional
Trichoderma viride [2] = assay: Antifungal activity against Trichoderma viride MTCC 1107 at 40 uM/ml after 48 hrs by paper disc diffusion method; assay type: functional; details: MTCC 1107, 48 h, read-out: IZ
Aspergillus niger [3] = assay: Antifungal activity against Aspergillus niger MTCC 1108 at 80 uM/ml after 48 hrs by paper disc diffusion method; assay type: functional; details: MTCC 1108, 48 h, read-out: IZ
Pseudomonas aeruginosa [4] = assay: Antibacterial activity against Pseudomonas aeruginosa ATCC 15499 at 20 uM/ml after 24 hrs by kirby-bauer method; assay type: functional
Trichoderma viride [5] = assay: Antifungal activity against Trichoderma viride MTCC 1107 at 80 uM/ml after 48 hrs by paper disc diffusion method; assay type: functional; details: MTCC 1107, 48 h, read-out: IZ
Escherichia coli [6] = assay: Antibacterial activity against Escherichia coli ATCC 35218 at 40 uM/ml after 24 hrs by kirby-bauer method; assay type: functional
Aspergillus flavus [7] = assay: Antifungal activity against Aspergillus flavus MTCC 1021 at 160 uM/ml after 48 hrs by paper disc diffusion method; assay type: functional
Aspergillus flavus [8] = assay: Antifungal activity against Aspergillus flavus MTCC 1021 at 20 uM/ml after 48 hrs by paper disc diffusion method; assay type: functional
Staphylococcus aureus = assay: Antibacterial activity against Staphylococcus aureus ATCC 11632 at 160 uM/ml after 24 hrs by kirby-bauer method; assay type: functional
Escherichia coli [9] = assay: Antibacterial activity against Escherichia coli ATCC 35218 at 160 uM/ml after 24 hrs by kirby-bauer method; assay type: functional; details: ATCC 35218, 24 h, read-out: IZ
Salmonella typhimurium [10] = assay: Antibacterial activity against Salmonella typhimurium ATCC 23564 at 160 uM/ml after 24 hrs by kirby-bauer method; assay type: functional
[11] = test system: Burkholderia pseudomallei; assay: Antibacterial activity against Burkholderia pseudomallei NTCC 10274 at 160 uM/ml after 24 hrs by kirby-bauer method; assay type: functional; details: NTCC 10274, 24 h, read-out: IZ
Aspergillus flavus [12] = assay: Antifungal activity against Aspergillus flavus MTCC 1021 at 80 uM/ml after 48 hrs by paper disc diffusion method; assay type: functional
Pseudomonas aeruginosa [13] = assay: Antibacterial activity against Pseudomonas aeruginosa ATCC 15499 at 40 uM/ml after 24 hrs by kirby-bauer method; assay type: functional
QG-56 = assay: Cytotoxicity against human QG56 cells after 48 hrs by MTT assay; assay type: functional, cell-based
Aspergillus niger [14] = assay: Antifungal activity against Aspergillus niger MTCC 1108 at 40 uM/ml after 48 hrs by paper disc diffusion method; assay type: functional
Escherichia coli [15] = assay: Antibacterial activity against Escherichia coli ATCC 35218 at 80 uM/ml after 24 hrs by kirby-bauer method; assay type: functional; details: ATCC 35218, 24 h, read-out: IZ
Curvularia lunata [16] = assay: Antifungal activity against Curvularia lunata MTCC 581 at 20 uM/ml after 48 hrs by paper disc diffusion method; assay type: functional; details: MTCC 581, 48 h, read-out: IZ
Trichoderma viride [17] = assay: Antifungal activity against Trichoderma viride MTCC 1107 at 20 uM/ml after 48 hrs by paper disc diffusion method; assay type: functional; details: MTCC 1107, 48 h, read-out: IZ
Pseudomonas aeruginosa [18] = assay: Antibacterial activity against Pseudomonas aeruginosa ATCC 15499 at 80 uM/ml after 24 hrs by kirby-bauer method; assay type: functional
Aspergillus niger [19] = assay: Antifungal activity against Aspergillus niger MTCC 1108 at 20 uM/ml after 48 hrs by paper disc diffusion method; assay type: functional
[20] = test system: Burkholderia pseudomallei; assay: Antibacterial activity against Burkholderia pseudomallei NTCC 10274 at 80 uM/ml after 24 hrs by kirby-bauer method; assay type: functional; details: NTCC 10274, 24 h, read-out: IZ
Escherichia coli [21] = assay: Antibacterial activity against Escherichia coli ATCC 35218 at 20 uM/ml after 24 hrs by kirby-bauer method; assay type: functional
Curvularia lunata [22] = assay: Antifungal activity against Curvularia lunata MTCC 581 at 40 uM/ml after 48 hrs by paper disc diffusion method; assay type: functional; details: MTCC 581, 48 h, read-out: IZ
Curvularia lunata [23] = assay: Antifungal activity against Curvularia lunata MTCC 581 at 160 uM/ml after 48 hrs by paper disc diffusion method; assay type: functional; details: MTCC 581, 48 h, read-out: IZ
Aspergillus flavus [24] = assay: Antifungal activity against Aspergillus flavus MTCC 1021 at 40 uM/ml after 48 hrs by paper disc diffusion method; assay type: functional
Curvularia lunata [25] = assay: Antifungal activity against Curvularia lunata MTCC 581 at 80 uM/ml after 48 hrs by paper disc diffusion method; assay type: functional; details: MTCC 581, 48 h, read-out: IZ
Aspergillus niger [26] = assay: Antifungal activity against Aspergillus niger MTCC 1108 at 160 uM/ml after 48 hrs by paper disc diffusion method; assay type: functional; details: MTCC 1108, 48 h, read-out: IZ
[27] = test system: Burkholderia pseudomallei; assay: Antibacterial activity against Burkholderia pseudomallei NTCC 10274 at 40 uM/ml after 24 hrs by kirby-bauer method; assay type: functional
Pseudomonas aeruginosa [28] = assay: Antibacterial activity against Pseudomonas aeruginosa ATCC 15499 at 160 uM/ml after 24 hrs by kirby-bauer method; assay type: functional; details: ATCC 15499, 24 h, read-out: IZ
Trichoderma viride [29] = assay: Antifungal activity against Trichoderma viride MTCC 1107 at 160 uM/ml after 48 hrs by paper disc diffusion method; assay type: functional; details: MTCC 1107, 48 h, read-out: IZ
Salmonella typhimurium [30] = assay: Antibacterial activity against Salmonella typhimurium ATCC 23564 at 40 uM/ml after 24 hrs by kirby-bauer method; assay type: functional; details: Salmonella enterica subsp. enterica serovar Typhimurium
Salmonella typhimurium [31] = assay: Antibacterial activity against Salmonella typhimurium ATCC 23564 at 20 uM/ml after 24 hrs by kirby-bauer method; assay type: functional; details: Salmonella enterica subsp. enterica serovar Typhimurium
Salmonella typhimurium [32] = assay: Antibacterial activity against Salmonella typhimurium ATCC 23564 at 80 uM/ml after 24 hrs by kirby-bauer method; assay type: functional, Salmonella enterica subsp. enterica serovar Typhimurium; details: Salmonella enterica, ATCC 23564, 24 h; read-out: IZ

## COc1cc(/C=C/C(=O)C2=C(/C=C/c3ccc(O)c(OC)c3)NC(=S)NC2c2ccccc2)ccc1O (centres undefined)
[1]; NTCC 10274, 24 h, read-out: IZ
  zone of inhibition at 20 µM: 11 mm
Trichoderma viride [2]
  zone of inhibition: 21 mm
Aspergillus niger [3]
  zone of inhibition at 80 µM: 14 mm
Pseudomonas aeruginosa [4]; ATCC 15499, 24 h, read-out: IZ
  zone of inhibition at 20 µM: 12 mm
Trichoderma viride [5]
  zone of inhibition at 80 µM: 21 mm
Escherichia coli [6]; ATCC 35218, 24 h, read-out: IZ
  zone of inhibition at 40 µM: 14 mm
Aspergillus flavus [7]; MTCC 1021, 48 h, read-out: IZ
  zone of inhibition at 160 µM: 9 mm
Aspergillus flavus [8]
  inhibition zone (IZ): inactive
HCT-116
  IC50: 100 uM/ml
Staphylococcus aureus
  inhibition zone (IZ): inactive
Escherichia coli [9]
  zone of inhibition at 160 µM: 21 mm
Salmonella typhimurium [10]; Salmonella enterica subsp. enterica serovar Typhimurium
  inhibition zone (IZ): inactive
[11]
  zone of inhibition at 160 µM: 18 mm
HepG2
  IC50: 50 uM/ml
Aspergillus flavus [12]
  inhibition zone (IZ): inactive
Pseudomonas aeruginosa [13]; ATCC 15499, 24 h, read-out: IZ
  zone of inhibition at 40 µM: 14 mm
QG-56
  IC50: 50 uM/ml
Aspergillus niger [14]
  inhibition zone (IZ): inactive
Escherichia coli [15]
  zone of inhibition at 80 µM: 18 mm
Curvularia lunata [16]
  zone of inhibition at 20 µM: 18 mm
Trichoderma viride [17]
  zone of inhibition at 20 µM: 18 mm
Pseudomonas aeruginosa [18]; ATCC 15499, 24 h, read-out: IZ
  zone of inhibition at 80 µM: 17 mm
Aspergillus niger [19]
  inhibition zone (IZ): inactive
[20]
  zone of inhibition at 80 µM: 16 mm
Escherichia coli [21]; ATCC 35218, 24 h, read-out: IZ
  zone of inhibition at 20 µM: 12 mm
Curvularia lunata [22]
  zone of inhibition at 40 µM: 21 mm
Curvularia lunata [23]
  zone of inhibition at 160 µM: 26 mm
Aspergillus flavus [24]
  inhibition zone (IZ): inactive
Curvularia lunata [25]
  zone of inhibition at 80 µM: 23 mm
Aspergillus niger [26]
  zone of inhibition at 160 µM: 16 mm
[27]; NTCC 10274, 24 h, read-out: IZ
  zone of inhibition at 40 µM: 13 mm
Pseudomonas aeruginosa [28]
  zone of inhibition at 160 µM: 18 mm
Trichoderma viride [29]
  zone of inhibition at 160 µM: 24 mm

## COc1cccc2c1C(=O)c1c(O)c3c(c(O)c1C2=O)C[C@@](O)(C(=O)CO)C[C@@H]3O[C@H]1C[C@H](N)[C@H](O)[C@H](C)O1 [DOXORUBICIN]
HCT-116
  IC50: 5 uM/ml
HepG2
  IC50: 2.5 uM/ml
QG-56
  IC50: 2.5 uM/ml

## COc1cc(/C=C/C(=O)C2=C(/C=C/c3ccc(O)c(OC)c3)NC(=O)NC2c2ccc(C)cc2)ccc1O (centres undefined)
[1]
  inhibition zone (IZ): inactive
Trichoderma viride [2]
  zone of inhibition: 15 mm
Aspergillus niger [3]
  zone of inhibition at 80 µM: 9 mm
Pseudomonas aeruginosa [4]
  inhibition zone (IZ): inactive
Trichoderma viride [5]
  zone of inhibition at 80 µM: 16 mm
Escherichia coli [6]
  inhibition zone (IZ): inactive
Aspergillus flavus [7]
  inhibition zone (IZ): inactive
HCT-116
  IC50: 50 uM/ml
Staphylococcus aureus
  inhibition zone (IZ): inactive
Escherichia coli [9]
  zone of inhibition at 160 µM: 11 mm
Salmonella typhimurium [10]; Salmonella enterica, ATCC 23564, 24 h, read-out: IZ
  zone of inhibition at 160 µM: 11 mm
Salmonella typhimurium [30]
  inhibition zone (IZ): inactive
[11]
  zone of inhibition at 160 µM: 10 mm
HepG2
  IC50: 50 uM/ml
Pseudomonas aeruginosa [13]
  inhibition zone (IZ): inactive
QG-56
  IC50: 100 uM/ml
Aspergillus niger [14]
  inhibition zone (IZ): inactive
Salmonella typhimurium [31]
  inhibition zone (IZ): inactive
Escherichia coli [15]
  zone of inhibition at 80 µM: 9 mm
Curvularia lunata [16]
  zone of inhibition at 20 µM: 12 mm
Trichoderma viride [17]
  zone of inhibition at 20 µM: 12 mm
Pseudomonas aeruginosa [18]
  inhibition zone (IZ): inactive
Aspergillus niger [19]
  inhibition zone (IZ): inactive
[20]
  zone of inhibition at 80 µM: 9 mm
Escherichia coli [21]
  inhibition zone (IZ): inactive
Curvularia lunata [22]
  zone of inhibition at 40 µM: 16 mm
Curvularia lunata [23]
  zone of inhibition at 160 µM: 22 mm
Curvularia lunata [25]
  zone of inhibition at 80 µM: 18 mm
Aspergillus niger [26]
  zone of inhibition at 160 µM: 12 mm
Salmonella typhimurium [32]
  zone of inhibition at 80 µM: 9 mm
[27]
  inhibition zone (IZ): inactive
Pseudomonas aeruginosa [28]
  zone of inhibition at 160 µM: 10 mm
Trichoderma viride [29]
  zone of inhibition at 160 µM: 18 mm
